Here are results for eleven molecules from patent US20250288704A1, “CXCR4-LIGANDS FOR DIAGNOSTIC AND THERAPEUTIC USE AND PRECURSORS THEREOF” (priority 2021, published 2025).

Like-named read-outs stand apart in the source and are kept apart here. Positions of bridges follow the written chain, without caps; N, C: chain ends. Non-standard residues stand in square brackets, D forms with d. Residues, ends and D or L forms follow the SMILES beside them. Groups on a side chain read outwards from the residue. Chains are numbered I, II in the order given. *: point of attachment. DOTA = O=C(O)CN1CCN(CC(=O)O)CCN(CC(=O)*)CCN(CC(=O)O)CC1; dTyr(3-I) = N[C@H](Cc1ccc(O)c(I)c1)C(=O)O; 2Nal = N[C@@H](Cc1ccc2ccccc2c1)C(=O)O; dCit = NC(=O)NCCC[C@@H](N)C(=O)O; dNMeOrn = CN[C@H](CCCN)C(=O)O; 4Amb = NCc1ccc(C(=O)O)cc1; Mercaptoacetyl = O=C(CS)*; 4Abz = Nc1ccc(C(=O)O)cc1; dDap = NC[C@@H](N)C(=O)O

The target of data set [1] is CXCR4 (Homo sapiens, UniProt P61073). Kind of data set: Determination of IC50: competition with 125I-Fc-131 on CXCR4-positive Jurkat cells.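 Note: test compound at 10^−5 to 10^−11 M competed for 2 h at 8 °C with the radioligand on 400,000 cells per well, bound versus free activity measured by γ-counting.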 It counts as binding. Also on record: CXCR4-positive Jurkat T lymphocyte cells were grown in Gibco's RPMI 1640 GlutaMAX medium; endogenous in cells; host or cells: Jurkat T lymphocyte cells (whole cells in suspension, 400.000 per tube).
Chain of CXCR4 (P61073 whole entry): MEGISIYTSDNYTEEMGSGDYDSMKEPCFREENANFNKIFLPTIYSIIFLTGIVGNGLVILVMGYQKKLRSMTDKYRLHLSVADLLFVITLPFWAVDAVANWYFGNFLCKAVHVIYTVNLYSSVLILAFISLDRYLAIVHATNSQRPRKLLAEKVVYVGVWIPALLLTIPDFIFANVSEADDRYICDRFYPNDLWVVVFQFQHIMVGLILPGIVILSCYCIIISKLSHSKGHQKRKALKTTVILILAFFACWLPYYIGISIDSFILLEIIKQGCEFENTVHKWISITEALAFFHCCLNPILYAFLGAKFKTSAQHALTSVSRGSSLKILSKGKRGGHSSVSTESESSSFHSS
Protocol: For in vitro experiments, cells were counted in a hemocytometer using trypan blue as contrast agent. The cell suspension was centrifuged, and the pellet resuspended in HBSS (+1 wt % BSA) to a concentration of 2 mio cells/mL. […] 200 μL of cell suspension (400.000 cells per well) were added to obtain a final peptide concentration range of 10^−5-10^−11 M. The tubes were cooled for 2 h at 8° C. to prevent internalization. The experiment was stopped by removal of the supernatant. 200 μL HBSS were added onto the cells, the suspension centrifuged, and the supernatant pooled with the respective first fractions. This step was repeated once more before the tubes containing the supernatants and the ones containing the cell pellets were subjected to activity measurement in the γ-counter.

A short description of data set [2]: Biodistribution in Jurkat tumor-bearing CB-17 SCID mice. Format: in vivo. As to conditions: female, CB-17 SCID, mouse, in vivo, iv, total radioactivity, 1 h p.i., Jurkat xenograft, CB-17 SCID female mice. The protocol:
All animal experiments were conducted in accordance with general animal welfare regulations in Germany and the institutional guidelines for the care and use of animals. To establish tumor xenografts, Jurkat cells (2-3×10^7 cells) were suspended in a mixture of Gibco's RPMI 1640 medium and Matrigel (1/1; v/v) from BD Biosciences (Heidelberg, Germany), and inoculated subcutaneously onto the right shoulder of 6-10 weeks old CB17-SCID mice from either Charles River GmbH (Sulzfeld, Germany) or the in-house mouse breeding facility. Mice were used when tumors had grown to a diameter of 5-8 mm (4-10 weeks after inoculation).
Approximately 0.5-20 MBq (0.02-0.20 nmol) of the ^125I-, ^177Lu-, ^99mTc-, ^18F- or ^68Ga-labeled ligand were injected into the tail vein of Jurkat tumor-bearing CB-17 SCID mice and the animals sacrificed after the respective biodistribution time. Selected organs were removed, weighted and measured in a γ-counter.

The mark [3] stands for this setting: unlabeled or cold (natGa/natLu) compound vs 125I-Fc-131, Jurkat cells, read-out: IC50.

By IC50 is commonly meant the concentration at which inhibition is half-maximal. Take `C[C@@H](NC(=O)[C@@H](CCCNC(=N)N)NC(=O)[C@@H](CN)NC(=O)CN1CCN(CC(=O)O)CCN(CC(=O)O)CCN(CC(=O)O)CC1)C(=O)NCc1ccc(C(=O)NCCC[C@@H]2C(=O)N[C@@H](CCCNC(=N)N)C(=O)N[C@@H](Cc3ccc4ccccc4c3)C(=O)NCC(=O)N[C@H](Cc3ccc(O)cc3)C(=O)N2C)cc1` [CXCR4-DOTA-1 [Ga]] (cyclo([dY][dNMeOrn]([4Amb-dA-dR-dDap-DOTA])R[2Nal]G)): the IC50 in data set [1] (setting [3]) was determined as 2.95 ± 0.59 nM.

Consider `C[C@@H](NC(=O)[C@@H](CCCNC(=N)N)NC(=O)[C@@H](CN)NC(=O)CN1CCN(CC(=O)O)CCN(CC(=O)O)CCN(CC(=O)O)CC1)C(=O)NCc1ccc(C(=O)NCCC[C@@H]2C(=O)N[C@@H](CCCNC(=N)N)C(=O)N[C@@H](Cc3ccc4ccccc4c3)C(=O)NCC(=O)N[C@H](Cc3ccc(O)cc3)C(=O)N2C)cc1` [CXCR4-DOTA-1] (cyclo([dY][dNMeOrn]([4Amb-dA-dR-dDap-DOTA])R[2Nal]G)), for which the IC50 in data set [1] (setting [3]) was 12.1 ± 2.42 nM.

Regarding `C[C@@H](NC(=O)[C@@H](CCCNC(=N)N)NC(=O)[C@@H](CN)NC(=O)CN1CCN(CC(=O)O)CCN(CC(=O)O)CCN(CC(=O)O)CC1)C(=O)NCc1ccc(C(=O)NCCC[C@@H]2C(=O)N[C@@H](CCCNC(=N)N)C(=O)N[C@@H](Cc3ccc4ccccc4c3)C(=O)NCC(=O)N[C@H](Cc3ccc(O)c(I)c3)C(=O)N2C)cc1` [CXCR4-DOTA-2] (cyclo([dTyr(3-I)][dNMeOrn]([4Amb-dA-dR-dDap-DOTA])R[2Nal]G)), the IC50 in data set [1] came out at 7.03 ± 0.59 nM.

In the case of `C[C@@H](NC(=O)[C@@H](CCCNC(=N)N)NC(=O)[C@@H](CN)NC(=O)CN1CCN(CC(=O)O)CCN(CC(=O)O)CCN(CC(=O)O)CC1)C(=O)Nc1ccc(C(=O)NCCC[C@@H]2C(=O)N[C@@H](CCCNC(=N)N)C(=O)N[C@@H](Cc3ccc4ccccc4c3)C(=O)NCC(=O)N[C@H](Cc3ccc(O)cc3)C(=O)N2C)cc1` [CXCR4-DOTA-3] (cyclo([dY][dNMeOrn]([4Abz-dA-dR-dDap-DOTA])R[2Nal]G)), the IC50 in data set [1] (setting [3]) is 3.16 ± 0.63 nM.

For `C[C@@H](NC(=O)[C@@H](CCCNC(=N)N)NC(=O)[C@@H](CN)NC(=O)CN1CCN(CC(=O)O)CCN(CC(=O)O)CCN(CC(=O)O)CC1)C(=O)Nc1ccc(C(=O)NCCC[C@@H]2C(=O)N[C@@H](CCCNC(=N)N)C(=O)N[C@@H](Cc3ccc4ccccc4c3)C(=O)NCC(=O)N[C@H](Cc3ccc(O)c(I)c3)C(=O)N2C)cc1` [CXCR4-DOTA-4] (cyclo([dTyr(3-I)][dNMeOrn]([4Abz-dA-dR-dDap-DOTA])R[2Nal]G)), in data set [1] (setting [3]), the IC50 was found to be 4.64 ± 0.96 nM.

`C[C@@H](NC(=O)[C@@H](CCCNC(N)=O)NC(=O)[C@@H](CN)NC(=O)CN1CCN(CC(=O)O)CCN(CC(=O)O)CCN(CC(=O)O)CC1)C(=O)Nc1ccc(C(=O)NCCC[C@@H]2C(=O)N[C@@H](CCCNC(=N)N)C(=O)N[C@@H](Cc3ccc4ccccc4c3)C(=O)NCC(=O)N[C@H](Cc3ccc(O)cc3)C(=O)N2C)cc1` [CXCR4-DOTA-5] (cyclo([dY][dNMeOrn]([4Abz-dA-dCit-dDap-DOTA])R[2Nal]G)): the IC50 in data set [1] (setting [3]) stood at 21.3 ± 6.64 nM.

As to `CC[C@H](C)[C@@H]([C@@H](CC(=O)N1CCC[C@H]1[C@H](OC)[C@@H](C)C(=O)N[C@H](C)C(O)c1ccccc1)OC)N(C)C(=O)[C@@H](NC(=O)[C@H](C(C)C)N(C)C(=O)OCc1ccc(NC(=O)[C@H](CCCNC(N)=O)NC(=O)[C@@H](NC(=O)CCCCCN2C(=O)CC(SC[C@@H](N)C(=O)NC(CCCNC(=N)N)C(=O)N[C@H](C)C(=O)Nc3ccc(C(=O)NCCC[C@@H]4C(=O)N[C@@H](CCCNC(=N)N)C(=O)N[C@H](Cc5ccc6ccccc6c5)C(=O)NCC(=O)N[C@@H](Cc5ccc(O)cc5)C(=O)N4C)cc3)C2=O)C(C)C)cc1)C(C)C` (stereo partly drawn) [CXCR4-MMAE-1], the IC50 in data set [1] came to 99.8 ± 7.55 nM.

In data set [1], `C[C@@H](NC(=O)[C@@H](CCCNC(=N)N)NC(=O)[C@@H](C)NC(=O)[C@@H](CO)NC(=O)[C@@H](CO)NC(=O)[C@@H](CO)NC(=O)CS)C(=O)Nc1ccc(C(=O)NCCC[C@@H]2C(=O)N[C@@H](CCCNC(=N)N)C(=O)N[C@@H](Cc3ccc4ccccc4c3)C(=O)NCC(=O)N[C@H](Cc3ccc(O)cc3)C(=O)N2C)cc1` [Tc-CXCR4-2] (I: Mercaptoacetyl-[dS][dS][dS][dA][dR][dA][4Abz] / II: cyclo([dY][dNMeOrn]R[2Nal]G); amide I:C-II:2) yielded an IC50 of 32.4 ± 9.9 nM.

Regarding `C[C@@H](NC(=O)[C@@H](CCCNC(=N)N)NC(=O)[C@@H](CCCNC(=N)N)NC(=O)[C@@H](CO)NC(=O)[C@@H](CO)NC(=O)[C@@H](CO)NC(=O)CS)C(=O)Nc1ccc(C(=O)NCCC[C@@H]2C(=O)N[C@@H](CCCNC(=N)N)C(=O)N[C@@H](Cc3ccc4ccccc4c3)C(=O)NCC(=O)N[C@H](Cc3ccc(O)cc3)C(=O)N2C)cc1` [Tc-CXCR4-3] (I: Mercaptoacetyl-[dS][dS][dS][dR][dR][dA][4Abz] / II: cyclo([dY][dNMeOrn]R[2Nal]G); amide I:C-II:2), the IC50 in data set [1] came to 184 ± 25.3 nM.

Consider `C[C@@H](NC(=O)[C@@H](CCCNC(=N)N)NC(=O)[C@@H](Cc1ccccc1)NC(=O)[C@@H](CO)NC(=O)[C@@H](CO)NC(=O)[C@@H](CO)NC(=O)CS)C(=O)Nc1ccc(C(=O)NCCC[C@@H]2C(=O)N[C@@H](CCCNC(=N)N)C(=O)N[C@@H](Cc3ccc4ccccc4c3)C(=O)NCC(=O)N[C@H](Cc3ccc(O)cc3)C(=O)N2C)cc1` [Tc-CXCR4-4] (I: Mercaptoacetyl-[dS][dS][dS][dF][dR][dA][4Abz] / II: cyclo([dY][dNMeOrn]R[2Nal]G); amide I:C-II:2), for which the IC50 in data set [1] was determined as 3490 ± 502 nM.

`C[C@@H](NC(=O)[C@@H](CCCNC(=N)N)NC(=O)[C@@H](Cc1c[nH]cn1)NC(=O)[C@@H](CO)NC(=O)[C@@H](CO)NC(=O)[C@@H](CO)NC(=O)CS)C(=O)Nc1ccc(C(=O)NCCC[C@@H]2C(=O)N[C@@H](CCCNC(=N)N)C(=O)N[C@@H](Cc3ccc4ccccc4c3)C(=O)NCC(=O)N[C@H](Cc3ccc(O)cc3)C(=O)N2C)cc1` [Tc-CXCR4-5] (I: Mercaptoacetyl-[dS][dS][dS][dH][dR][dA][4Abz] / II: cyclo([dY][dNMeOrn]R[2Nal]G); amide I:C-II:2) yielded an IC50 in data set [1] of 11 ± 1.3 nM. Moreover, the tissue uptake at 1 h in data set [2] (Adrenal, read-out: % iD/g Adrenal) was 0.42 %ID/g; in data set [2] (Blood, read-out: % iD/g Blood), 0.65 %ID/g; in data set [2] (Bone, read-out: % iD/g Bone), 1.55 %ID/g; in data set [2] (Heart, read-out: % iD/g Heart) it was 0.48 %ID/g; in data set [2] (Intestine, read-out: % iD/g Intestine), 0.76 %ID/g; in data set [2] (Kidney, read-out: % iD/g Kidney), 2.89 %ID/g. Also, the tissue uptake at 1 h was determined as 2.42 %ID/g in data set [2] (Liver, read-out: % iD/g Liver); 1.57 %ID/g in data set [2] (Lung, read-out: % iD/g Lung); 0.15 %ID/g in data set [2] (Muscle, read-out: % iD/g Muscle); 0.4 %ID/g in data set [2] (Pancreas, read-out: % iD/g Pancreas); 8.47 %ID/g in data set [2] (Spleen, read-out: % iD/g Spleen); 0.7 %ID/g in data set [2] (Stomach, read-out: % iD/g Stomach). In addition, the tissue uptake at 1 h in data set [2] (Tumor, read-out: % iD/g Tumor) stood at 1.48 %ID/g.
